In the OligoGym collection:
Oligonucleotides are written 5' to 3', each unit as a sugar letter and its base; * is a phosphorothioate linkage, no mark a phosphodiester; rarer units and linkages stand in square brackets, end groups in braces. Plain capitals give the bases only. Oligonucleotides are given in HELM: sugar(base)linkage, 5' to 3'; d 2'-deoxyribose, r ribose, m 2'-O-methylribose, p phosphate. ss, as = sense and antisense strand; d = 2'-deoxy (DNA); r = 2'-OH (RNA)

target: Cacnb1 (rat); experiment: reporter assay of Huesken 2005; conditions: siRNA
Further: test concentration or dose not given here.

Substance	normalised inhibition (eCFP-eYFP dual reporter)
RNA1{r(A)p.r(A)p.r(C)p.r(C)p.r(A)p.r(A)p.r(U)p.r(U)p.r(G)p.r(G)p.r(A)p.r(A)p.r(G)p.r(A)p.r(U)p.r(G)p.r(C)p.r(C)p.r(U)p.d(T)p.d(T)}|RNA2{r(A)p.r(G)p.r(G)p.r(C)p.r(A)p.r(U)p.r(C)p.r(U)p.r(U)p.r(C)p.r(C)p.r(A)p.r(A)p.r(U)p.r(U)p.r(G)p.r(G)p.r(U)p.r(U)p.d(C)p.d(T)}$$$RNA1{StrandType:ss}|RNA2{StrandType:as}$	50%
RNA1{r(A)p.r(A)p.r(C)p.r(C)p.r(G)p.r(C)p.r(C)p.r(U)p.r(C)p.r(A)p.r(G)p.r(C)p.r(U)p.r(C)p.r(C)p.r(A)p.r(G)p.r(C)p.r(A)p.d(T)p.d(T)}|RNA2{r(U)p.r(G)p.r(C)p.r(U)p.r(G)p.r(G)p.r(A)p.r(G)p.r(C)p.r(U)p.r(G)p.r(A)p.r(G)p.r(G)p.r(C)p.r(G)p.r(G)p.r(U)p.r(U)p.d(T)p.d(T)}$$$RNA1{StrandType:ss}|RNA2{StrandType:as}$	46.2%
RNA1{r(A)p.r(A)p.r(G)p.r(A)p.r(A)p.r(U)p.r(G)p.r(A)p.r(G)p.r(C)p.r(U)p.r(G)p.r(G)p.r(A)p.r(G)p.r(G)p.r(G)p.r(C)p.r(U)p.d(T)p.d(T)}|RNA2{r(A)p.r(G)p.r(C)p.r(C)p.r(C)p.r(U)p.r(C)p.r(C)p.r(A)p.r(G)p.r(C)p.r(U)p.r(C)p.r(A)p.r(U)p.r(U)p.r(C)p.r(U)p.r(U)p.d(A)p.d(T)}$$$RNA1{StrandType:ss}|RNA2{StrandType:as}$	54.2%

target: UBE2J1; experiment: reporter assay of Huesken 2005; conditions: siRNA

Substance	normalised inhibition (eCFP-eYFP dual reporter)
sense rArGrGrArCrArGrCrArUrUrArUrUrArGrCrCrAdTdT / antisense rUrGrGrCrUrArArUrArArUrGrCrUrGrUrCrCrUdTdA	74.8%
sense rArUrArUrArUrCrUrGrGrCrArArArCrGrArArUdTdT / antisense rArUrUrCrGrUrUrUrGrCrCrArGrArUrArUrArUdTdC	95.9%
sense rArUrCrArUrUrArCrCrArUrGrCrGrCrArGrCrCdTdT / antisense rGrGrCrUrGrCrGrCrArUrGrGrUrArArUrGrArUdCdT	55.2%
sense rArUrCrCrArGrGrGrCrCrArCrCrArGrCrCrArAdTdT / antisense rUrUrGrGrCrUrGrGrUrGrGrCrCrCrUrGrGrArUdTdA	76%
sense rArUrGrArArArCrCrArCrCrArArGrCrArUrUrAdTdT / antisense rUrArArUrGrCrUrUrGrGrUrGrGrUrUrUrCrArUdGdG	68.1%
sense rArUrGrGrUrCrGrArUrUrUrGrArArGrUrGrGrGdTdT / antisense rCrCrCrArCrUrUrCrArArArUrCrGrArCrCrArUdTdA	56.3%
sense rArUrUrUrArCrArArGrArUrGrArUrArUrArCrCdTdT / antisense rGrGrUrArUrArUrCrArUrCrUrUrGrUrArArArUdCdA	47.6%
sense rCrArArArUrArArGrCrUrUrUrArArGrGrCrArGdTdT / antisense rCrUrGrCrCrUrUrArArArGrCrUrUrArUrUrUrGdCdC	56%
sense rCrArCrCrArGrCrCrArArGrArGrArCrArArCrCdTdT / antisense rGrGrUrUrGrUrCrUrCrUrUrGrGrCrUrGrGrUrGdGdC	55.8%
sense rCrArGrArArGrUrCrArArUrUrCrArUrCrUrGrGdTdT / antisense rCrCrArGrArUrGrArArUrUrGrArCrUrUrCrUrGdCdC	60.5%
sense rCrArUrCrUrCrArGrGrCrCrArUrCrArUrCrCrUdTdT / antisense rArGrGrArUrGrArUrGrGrCrCrUrGrArGrArUrGdCdT	64.7%
sense rCrCrCrArArCrCrUrGrUrArGrCrUrArArGrArAdTdT / antisense rUrUrCrUrUrArGrCrUrArCrArGrGrUrUrGrGrGdTdA	78.5%
sense rCrCrGrArUrUrUrUrGrArUrGrGrArGrGrArGrUdTdT / antisense rArCrUrCrCrUrCrCrArUrCrArArArArUrCrGrGdAdG	48%
sense rCrCrGrGrGrCrCrCrArGrCrArGrCrArGrArGrUdTdT / antisense rArCrUrCrUrGrCrUrGrCrUrGrGrGrCrCrCrGrGdCdG	47.4%
sense rCrCrUrUrUrCrArUrCrArArCrCrUrArCrCrCrAdTdT / antisense rUrGrGrGrUrArGrGrUrUrGrArUrGrArArArGrGdAdT	56.2%
sense rCrUrCrUrUrArUrArUrUrCrCrGrArCrGrArArUdTdT / antisense rArUrUrCrGrUrCrGrGrArArUrArUrArArGrArGdCdT	98.8%
sense rCrUrGrArCrCrArArGrArArGrCrCrArArArGrAdTdT / antisense rUrCrUrUrUrGrGrCrUrUrCrUrUrGrGrUrCrArGdCdT	73.1%
sense rCrUrGrArCrUrUrUrGrGrCrArUrUrGrGrCrArGdTdT / antisense rCrUrGrCrCrArArUrGrCrCrArArArGrUrCrArGdGdA	76.4%
sense rGrArArGrUrCrArArUrUrCrArUrCrUrGrGrArAdTdT / antisense rUrUrCrCrArGrArUrGrArArUrUrGrArCrUrUrCdTdG	75.3%
sense rGrArCrCrArArGrArArGrCrCrArArArGrArArCdTdT / antisense rGrUrUrCrUrUrUrGrGrCrUrUrCrUrUrGrGrUrCdAdG	56.7%
sense rGrArGrCrArUrCrUrCrArGrGrCrCrArUrCrArUdTdT / antisense rArUrGrArUrGrGrCrCrUrGrArGrArUrGrCrUrCdAdA	64.1%
sense rGrArGrUrArUrArArGrGrArCrArGrCrArUrUrAdTdT / antisense rUrArArUrGrCrUrGrUrCrCrUrUrArUrArCrUrCdCdA	91.4%

Substance	normalised inhibition (eCFP-eYFP dual reporter)
sense rGrArGrUrCrArGrArCrUrUrArArArCrCrArCrUdTdT / antisense rArGrUrGrGrUrUrUrArArGrUrCrUrGrArCrUrCdAdG	88.7%
sense rGrCrArGrArArGrUrCrArArUrUrCrArUrCrUrGdTdT / antisense rCrArGrArUrGrArArUrUrGrArCrUrUrCrUrGrCdCdT	54.4%
sense rGrCrCrArCrCrArGrArGrUrArUrCrCrCrArUrGdTdT / antisense rCrArUrGrGrGrArUrArCrUrCrUrGrGrUrGrGrCdAdG	53.6%
sense rGrCrCrUrUrUrArArArArUrCrUrGrGrArArGrCdTdT / antisense rGrCrUrUrCrCrArGrArUrUrUrUrArArArGrGrCdAdA	50.4%
sense rGrCrGrCrCrGrGrGrCrCrCrArGrCrArGrCrArGdTdT / antisense rCrUrGrCrUrGrCrUrGrGrGrCrCrCrGrGrCrGrCdTdG	35.3%
sense rGrCrUrGrUrArCrUrGrArUrUrGrUrCrArUrCrCdTdT / antisense rGrGrArUrGrArCrArArUrCrArGrUrArCrArGrCdTdG	62.4%
sense rGrGrArGrArGrGrGrArGrCrCrArUrArGrGrUrUdTdT / antisense rArArCrCrUrArUrGrGrCrUrCrCrCrUrCrUrCrCdTdT	61%
sense rGrUrUrGrCrCrUrUrUrArArArArUrCrUrGrGrAdTdT / antisense rUrCrCrArGrArUrUrUrUrArArArGrGrCrArArCdAdG	55.2%
sense rGrUrUrUrGrArGrCrArUrCrUrCrArGrGrCrCrAdTdT / antisense rUrGrGrCrCrUrGrArGrArUrGrCrUrCrArArArCdAdG	72.6%
sense rUrArArCrGrGrCrUrArArUrGrGrUrCrGrArUrUdTdT / antisense rArArUrCrGrArCrCrArUrUrArGrCrCrGrUrUrAdGdG	84%
sense rUrArArUrGrGrUrCrGrArUrUrUrGrArArGrUrGdTdT / antisense rCrArCrUrUrCrArArArUrCrGrArCrCrArUrUrAdGdC	46.3%
sense rUrArUrCrUrGrGrCrArArArCrGrArArUrArCrAdTdT / antisense rUrGrUrArUrUrCrGrUrUrUrGrCrCrArGrArUrAdTdA	91.6%
sense rUrCrArUrCrArArCrCrUrArCrCrCrArArCrCrUdTdT / antisense rArGrGrUrUrGrGrGrUrArGrGrUrUrGrArUrGrAdAdA	47.9%
sense rUrCrUrGrUrUrUrGrArGrCrArUrCrUrCrArGrGdTdT / antisense rCrCrUrGrArGrArUrGrCrUrCrArArArCrArGrAdTdT	56%
sense rUrGrCrCrArArCrArArArArGrGrArGrArGrGrGdTdT / antisense rCrCrCrUrCrUrCrCrUrUrUrUrGrUrUrGrGrCrAdTdA	28.7%
sense rUrGrGrCrArArArCrGrArArUrArCrArUrArUrUdTdT / antisense rArArUrArUrGrUrArUrUrCrGrUrUrUrGrCrCrAdGdA	110%
sense rUrGrGrUrGrGrGrUrCrArGrCrUrGrUrArCrUrGdTdT / antisense rCrArGrUrArCrArGrCrUrGrArCrCrCrArCrCrAdTdG	83.4%
sense rUrGrUrCrUrArCrUrUrCrArCrCrArGrArUrGrUdTdT / antisense rArCrArUrCrUrGrGrUrGrArArGrUrArGrArCrAdAdC	73.1%
sense rUrUrCrArCrUrArArCrUrGrArUrUrUrArCrArAdTdT / antisense rUrUrGrUrArArArUrCrArGrUrUrArGrUrGrArAdAdA	67.5%
sense rUrUrCrCrArGrGrGrUrGrCrUrArCrGrGrCrCrAdTdT / antisense rUrGrGrCrCrGrUrArGrCrArCrCrCrUrGrGrArAdTdG	75.1%
sense rUrUrGrCrCrUrUrUrArArArArUrCrUrGrGrArAdTdT / antisense rUrUrCrCrArGrArUrUrUrUrArArArGrGrCrArAdCdA	70.5%
sense rUrUrUrArUrCrArCrGrGrGrCrGrGrArUrArGrUdTdT / antisense rArCrUrArUrCrCrGrCrCrCrGrUrGrArUrArArAdCdT	51.8%
